Experimental data published in ChEMBL document CHEMBL1121992, “Synthesis and topical antiinflammatory activity of some steroidal [16 alpha, 17 alpha-d]Isoxazolidines” (1982).

System: Mus musculus
Test: Topical antiinflammatory activity in mice, expressed as potency was determined
Assay type: functional

Compound | Potency
CC(=O)OCC(=O)[C@@]12ON(Cc3ccccc3)C[C@@H]1CC1C3CCC4=CC(=O)C=CC4(C)[C@H]3C(O)CC12C (some centres not stated) | 69
CC(=O)OCC(=O)[C@@]12ON(C)C[C@@H]1CC1C3CCC4=CC(=O)C=CC4(C)[C@@]3(F)C(O)CC12C (some centres not stated) | 156
CC(=O)OCC(=O)[C@@]12ON(C)C[C@@H]1CC1C3CCC4=CC(=O)C=CC4(C)[C@H]3C(O)CC12C (some centres not stated) | 75
CC(=O)OCC(=O)[C@@]12OC(C)(C)O[C@@H]1CC1C3CCC4=CC(=O)C=CC4(C)[C@@]3(F)C(O)CC12C (some centres not stated) | 117
CC(=O)OCC(=O)[C@@]12N=C(C)O[C@@H]1CC1C3CCC4=CC(=O)C=CC4(C)[C@@]3(F)C(O)CC12C (some centres not stated) | 104
CC(=O)OCC(=O)[C@@]12OC(C)(C)O[C@@H]1CC1C3CCC4=CC(=O)C=CC4(C)[C@H]3C(O)CC12C (some centres not stated) | 102
CC(=O)OCC(=O)[C@@]12ON(Cc3ccccc3)C[C@@H]1CC1C3CCC4=CC(=O)C=CC4(C)[C@@]3(F)C(O)CC12C (some centres not stated) | 62
